Measurements: publication PMC7356358 (Biomolecules, 2020)
Like-named read-outs stand apart in the source and are kept apart here.

What was measured:
KPf [1] = conditions: SD, n = 3
From the text: (§1) Standard deviations shown represent three
(§2) independent assays made using separate protein purification batches. Statistical significance of data was
(§3) Table S2. Comparative ATP binding affinities for the Hsp70 proteins
(§4) The standard deviations shown in parenthesis were […]

DnaK [2] = target: T1, DnaK (Escherichia coli, UniProt P0A6Y8); assay: Steady-state multi-parametric surface plasmon resonance at 25 °C with Hsp70 immobilised by amine coupling and ATP (0-20 uM) injected as analyte.; assay type: binding; design: recombinant full-length, N-terminal His6 tag (pQE30), expressed in E. coli XL1 Blue; conditions: SD, n = 3; read-out: KD /µM (± standard deviation)
Procedure: Association was allowed for 2 min and dissociation was monitored for 8 min.
as §1, §2, §3, §4
Target sequence in this assay (P0A6Y8 2-638): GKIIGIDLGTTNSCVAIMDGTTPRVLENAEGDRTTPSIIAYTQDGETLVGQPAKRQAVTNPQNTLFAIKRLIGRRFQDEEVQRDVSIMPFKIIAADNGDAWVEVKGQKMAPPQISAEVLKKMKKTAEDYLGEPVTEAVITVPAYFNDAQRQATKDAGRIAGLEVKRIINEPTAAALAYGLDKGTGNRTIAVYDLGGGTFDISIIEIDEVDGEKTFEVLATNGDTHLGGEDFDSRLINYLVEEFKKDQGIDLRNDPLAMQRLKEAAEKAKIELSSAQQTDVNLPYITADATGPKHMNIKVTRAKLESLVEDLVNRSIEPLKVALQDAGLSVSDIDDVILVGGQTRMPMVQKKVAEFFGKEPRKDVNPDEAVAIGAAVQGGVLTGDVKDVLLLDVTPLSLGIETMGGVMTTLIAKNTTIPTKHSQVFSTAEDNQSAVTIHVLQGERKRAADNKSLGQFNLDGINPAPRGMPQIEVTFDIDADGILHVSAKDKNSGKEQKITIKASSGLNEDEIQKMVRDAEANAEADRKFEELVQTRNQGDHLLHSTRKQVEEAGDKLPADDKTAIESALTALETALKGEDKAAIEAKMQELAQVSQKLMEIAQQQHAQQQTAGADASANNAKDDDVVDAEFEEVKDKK

KPf [3] = conditions: read-out: Km (µM), + PfHsp40; SD, n = 3
Procedure: (§6) Hsp70 proteins at final concentration of 0.4 μM were each incubated for 5 min in buffer HKMD (10 mM HEPES-KOH pH 7.5, 100 mM KCl, 2 mM MgCl2 and 0.5 mM DTT). The reaction was initiated by the addition of ATP at various concentrations (0–5 mM) and samples were analyzed every 30 min for 4 h.
Standard deviations shown represent three independent assays made using separate protein purification batches.
validated by one way ANOVA test (p< 0.05 *) and (p<0.01**).

PfAdoMetDC = assay: Co-expression of PfAdoMetDC with supplementary chaperones in E. coli, fold by CD/fluorescence; assay type: cell-based, Plasmodium falciparum; conditions: co-expression with DnaJ in E. coli BL21 Star (DE3); purified PfAdoMetDC analysed by CD, ANS and intrinsic fluorescence
Procedure: Briefly, the transformed E. coli BL21 Star (DE3) cells were cultured in LB broth supplemented with 100 μg/mL ampicillin (Sigma Aldrich) to select for pASKIBA3 and 50 μg/mL spectinomycin (Sigma Aldrich), to select for pBB535 and pBB542, respectively. As control, PfAdoMetDC expressed alone (without supplementary chaperones), was expressed in E. coli BL21 StarTM (DE3) cells as previously described [33]. The expression of chaperones was initiated by addition of 1 mM IPTG and at OD600 = 0.2 while the expression of PfAdoMetDC was initiated by addition of 2 ng/mL anhydroxytetracycline (AHT) (IBA GmbH, Göttingen, Germany) at OD600 = 0.7. Cells were incubated for 24 h (37 °C, 250 rpm) from the time of induction with IPTG. The cells were harvested by centrifugation (5000 g, 20 min, 4 °C) and the pellet was resuspended in lysis buffer (100 mM Tris pH 7.5; 300 mM NaCl; 10 mM Imidazole, containing 1 mM aminoethyl benzenesulfonyl fluoride hydrochloride (AEBSF) and 1 mg/mL of lysozyme). […] Purified PfAdoMetDC protein was quantified using the Bradford assay. […] Following Strep-Tactin Sepharose affinity column purification, PfAdoMetDC was analyzed using an Äkta explorer system (Amersham Pharmacia Biotech; Buckinghamshire, UK) fast protein liquid chromatography (FPLC), to determine migration profiles of the protein preparations that were co-expressed with the various chaperones sets. The migration pattern of PfAdoMetDC as determined by Size exclusion chromatography (SEC) was used to infer the compact/relaxed state of its fold. Retention times of the respective protein preparation were determined by SEC at 22 °C in running buffer (50 mM Tris-HCl, pH 7.5, 1 mM DTT, 500 mM NaCl and 0.02% w/v NaN3) using Bio-Select SEC 250-5 column (BioRad) with a fractionation range of 1000–250,000 Da. […] The elution profiles of the protein preparations were determined as peaks obtained at 280 nm using a Spectra Series UV100 spectrophotometer (Thermo Fischer Scientific). […]

PfHsp70-1 [4] = assay: Model peptide substrate binding by MP-SPR, PfHsp70-1; design: species or system Plasmodium falciparum; conditions: for affinity of PfHsp70-1 relative to the non-enriched peptide (GFRVVLMYRF, ALLLMYRR): presence of ADP
Chain of PfHsp70-1 (P11144 1-630 limits assumed): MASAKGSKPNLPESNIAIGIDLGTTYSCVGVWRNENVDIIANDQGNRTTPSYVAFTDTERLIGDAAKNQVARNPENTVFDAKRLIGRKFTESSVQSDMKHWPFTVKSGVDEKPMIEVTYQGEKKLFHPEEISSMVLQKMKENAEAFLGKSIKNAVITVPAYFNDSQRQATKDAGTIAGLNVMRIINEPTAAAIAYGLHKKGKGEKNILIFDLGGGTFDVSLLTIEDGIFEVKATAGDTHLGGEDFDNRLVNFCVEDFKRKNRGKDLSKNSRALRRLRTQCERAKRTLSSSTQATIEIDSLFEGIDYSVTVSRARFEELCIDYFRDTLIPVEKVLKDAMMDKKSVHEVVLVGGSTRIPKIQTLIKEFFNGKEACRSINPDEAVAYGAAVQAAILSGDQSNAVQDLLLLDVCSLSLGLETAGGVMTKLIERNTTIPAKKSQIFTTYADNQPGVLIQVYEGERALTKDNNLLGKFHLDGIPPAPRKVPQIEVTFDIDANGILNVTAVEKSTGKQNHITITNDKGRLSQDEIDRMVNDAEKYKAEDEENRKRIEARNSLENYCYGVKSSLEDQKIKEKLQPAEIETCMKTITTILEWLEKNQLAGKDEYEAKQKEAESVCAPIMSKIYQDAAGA
From the text: (§5) The Hsp70 ligands were immobilized as previously described.

DnaK [5] = target: T1, DnaK; assay: Model peptide substrate binding by MP-SPR, DnaK; design: His6 (polyhistidine) (N); made in house; host or cells: E. coli XL1 Blue; conditions: for affinity of DnaK for peptide: peptide 0-2000 nM over immobilized DnaK, presence of ADP (5 mM); for effect of asparagine enrichment of the peptide on DnaK's affinity: presence of ADP, N-enriched form versus this peptide
From the text: as §5
Target sequence in this assay (P0A6Y8 whole entry): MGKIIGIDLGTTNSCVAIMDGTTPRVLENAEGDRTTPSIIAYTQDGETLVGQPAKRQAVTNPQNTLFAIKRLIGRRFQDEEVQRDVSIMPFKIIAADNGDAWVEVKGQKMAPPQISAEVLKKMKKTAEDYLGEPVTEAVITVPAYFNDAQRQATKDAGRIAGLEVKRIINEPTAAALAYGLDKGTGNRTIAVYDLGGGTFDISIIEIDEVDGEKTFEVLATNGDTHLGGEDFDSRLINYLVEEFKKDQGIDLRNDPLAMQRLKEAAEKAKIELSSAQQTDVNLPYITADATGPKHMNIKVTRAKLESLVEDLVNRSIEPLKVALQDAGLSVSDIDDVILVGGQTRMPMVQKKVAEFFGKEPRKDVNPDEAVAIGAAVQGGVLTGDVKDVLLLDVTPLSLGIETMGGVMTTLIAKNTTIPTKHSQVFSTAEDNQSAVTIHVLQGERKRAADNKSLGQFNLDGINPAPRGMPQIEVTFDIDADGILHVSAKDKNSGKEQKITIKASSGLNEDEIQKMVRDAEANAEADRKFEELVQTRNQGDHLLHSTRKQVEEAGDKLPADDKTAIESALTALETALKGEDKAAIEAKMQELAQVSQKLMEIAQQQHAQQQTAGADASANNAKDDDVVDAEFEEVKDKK

KPf [6] = conditions: MP-SPR; for effect of N enrichment of the peptide on affinity of KPf: presence of 5 mM ADP, N-enriched form versus this peptide
Target sequence in this assay (P11144 405-631 limits assumed): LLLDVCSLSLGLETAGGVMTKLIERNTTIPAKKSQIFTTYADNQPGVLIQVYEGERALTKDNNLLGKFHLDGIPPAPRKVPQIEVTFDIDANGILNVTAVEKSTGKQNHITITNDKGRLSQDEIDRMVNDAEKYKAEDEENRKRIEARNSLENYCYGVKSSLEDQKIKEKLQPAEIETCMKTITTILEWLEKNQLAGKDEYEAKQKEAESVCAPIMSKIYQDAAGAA
Procedure: The respective affinity of each Hsp70 for model peptide substrate was investigated by MP-SPR. The Hsp70 ligands were immobilized as previously described [36]. […] The analytes were injected at varying concentrations (0, 125 nM, 250 nM, 500 nM, 1000 nM and 2000 nM) over the immobilized ligands (Hsp70s). The analytes were injected at a flow rate of 100 µL/min and association and dissociation were allowed to occur for 10 min. The assay was conducted both in the absence and presence of 5 mM ADP/ATP. Analysis of association and dissociation data was conducted as previously described using TraceDrawer software version 1.8 (Ridgeview Instruments).

DnaK [7] = target: T1, DnaK; conditions: MP-SPR
Target sequence in this assay (P0A6Y8 whole entry): as the sequence (P0A6Y8 whole entry) above
Procedure: (§7) As ligands, the recombinant Hsp70 proteins were immobilized on the CMD3D 500L chip. The analyte (respective Hsp70 protein) was prepared at various concentrations of 0, 125, 250, 500, 1000 and 2000 nM, respectively and injected at 50 μL/sec onto each channel with immobilized ligands. A reference channel without immobilized protein served as the control for non-specific binding and changes in refractive index. The analysis was conducted either in the absence or presence of 5 mM ATP/ADP. Association was allowed for 2 min, while dissociation was monitored for 8 min. Data analysis was conducted after double referencing by subtraction of both the baseline RU (buffer with ATP/ADP plus BSA as control protein) and RU from the reference channel. Kinetics steady-state equilibrium constant data were processed after concatenating the responses of all five analyte concentrations by global fitting using TraceDrawer software version 1.8 (Ridgeview Instruments).

[8] = Heat stability of secondary structure by far-UV CD; assay type: physicochemical; conditions: far-UV CD at 222 nm
Procedure: Spectra was averaged for 15 scans after baseline correction (buffer without recombinant protein). The spectra were deconvoluted to α-helix, β-sheet, β-turn and unordered regions, using the Dichroweb server, (http://dichroweb.cryst.bbk.ac.uk; [37]). The effect of heat stress on the secondary structure of the Hsp70s was investigated by monitoring the spectral changes of each protein at various temperatures (19–95 °C). The folded states of each Hsp70 protein at any given temperature were determined using spectral readings obtained at 222 nm as previously described. In a separate experiment, the analysis of PfAdoMetDC protein co-expressed with the various chaperone sets was conducted by monitoring the CD spectrum at 190–240 nm at 22 °C. The assay was repeated in the presence of PfAdoMetDC substrate, S-adenosylmethionine hydrochloride (SAM), as previously described with minor modifications. Briefly, PfAdoMetDC protein was preincubated in PBS supplemented with 100 μM SAM for 30 min prior to analysis at 25 °C. The resultant spectra were monitored and averaged following baseline correction (100 μM SAM using buffer void of the protein).

[9] = ATPase activity (released inorganic phosphate); assay type: biochemical; conditions: basal ATPase, 0.4 μM Hsp70, ATP 0-5 mM, buffer HKMD pH 7.5, SD of three independent assays
Procedure: as §6

KPf [10] = assay: ATP binding affinity by MP-SPR, KPf; design: species or system E. coli / P. falciparum; conditions: read-out: ATP KD (± standard deviation), 25 °C, immobilized KPf, ATP analyte 0-20 μM, steady state equilibrium, three independent assays
Procedure: This assay was conducted at room temperature (25 °C) using a BioNavis Multi-parametric surface plasmon resonance (MP-SPR; BioNavis; Tampere, Finland) spectroscopy system. […] Steady state equilibrium constant data were processed and analyzed using TraceDrawer software version 1.8 (Ridgeview Instruments; Uppsala, Sweden).
Proteins Vmax (n/mol/min/mg) Km (µM)
as §1, §2
KD /µM (± standard deviation)
as §4

PfHsp70-1 [11] = assay: Self-association of PfHsp70-1 by MP-SPR; assay type: binding, Plasmodium falciparum
Procedure: as §7

[12] = 0.2 μM protein in PBS pH 7.5, 19–95 °C

## Nc1ncnc2c1ncn2[C@@H]1O[C@H](COP(=O)(O)OP(=O)(O)OP(=O)(O)O)[C@@H](O)[C@H]1O [ATP, adenosine 5'-triphosphate]
KPf [1]
  Km: 29.6 µM
DnaK [2]
  Kd: 83.8 µM
KPf [3]
  Km: 25.7 µM

## GroEL: E. coli chaperonin co-expressed as supplementary chaperone
PfAdoMetDC
  effect of co-produced chaperone on PfAdoMetDC folding: restoration of the ß-conformation

## ANNNMYRR
PfHsp70-1 [4]
  affinity of PfHsp70-1 relative to the non-enriched peptide (GFRVVLMYRF, ALLLMYRR): higher affinity

## NRLLTG [canonical Hsp70 model peptide substrate]
DnaK [5]
  affinity of DnaK for peptide: nanomolar range

## GFRNNNMYRF
PfHsp70-1 [4]
  affinity of PfHsp70-1 relative to the non-enriched peptide (GFRVVLMYRF, ALLLMYRR): higher affinity

## ALLLMYRR [canonical Hsp70 model peptide substrate]
KPf [6]
  effect of N enrichment of the peptide on affinity of KPf: not enhanced
DnaK [5]
  effect of asparagine enrichment of the peptide on DnaK's affinity: did not enhance

## NRNNTG [asparagine-enriched form of NRLLTG]
KPf [6]; peptide over immobilized KPf, presence of ADP, higher than for NRLLTG
  affinity of KPf for peptide: nanomolar range
DnaK [5]
  affinity of DnaK for peptide: micromolar range
PfHsp70-1 [4]; peptide over immobilized PfHsp70-1, presence of ADP, higher than for NRLLTG
  affinity of PfHsp70-1 for peptide: nanomolar range

## GFRVVLMYRF [canonical Hsp70 model peptide substrate]
KPf [6]
  effect of N enrichment of the peptide on affinity of KPf: not enhanced
DnaK [5]
  effect of asparagine enrichment of the peptide on DnaK's affinity: did not enhance

## DnaK: recombinant (His)6-tagged Escherichia coli Hsp70 (DnaK)
PfAdoMetDC
  effect of co-produced chaperone on PfAdoMetDC folding: did not support PfAdoMetDC folding
DnaK [7]; analyte DnaK 0-2000 nM over immobilized DnaK, + 5 mM ATP, global fit
  Ka: 1.38 (±0.08) × 10^2 Ms^−1
DnaK [7]; analyte DnaK over immobilized DnaK, + 5 mM ADP
  Ka: 1.22 (±0.13) × 10^2 Ms^−1
DnaK [7]; analyte DnaK over immobilized DnaK, no nucleotide
  Ka: 1.27 (±0.07) × 10^3 Ms^−1
[8]; [12]
  temperature above which the protein rapidly unfolded: above 45 °C
  temperature of complete unfolding: approximately 68 °C
[9]
  Vmax: 14.33 (± 1.4) n/mol/min/mg

## Nc1ncnc2c1ncn2[C@@H]1O[C@H](COP(=O)(O)OP(=O)(O)OP(=O)(O)O)[C@@H](O)[C@H]1O [ATP]
KPf [10]
  Kd: 0.38 µM

## PfHsp70-1: recombinant Plasmodium falciparum Hsp70-1, cytosol-localized molecular chaperone (PF3D7_0818900)
PfHsp70-1 [11]; analyte PfHsp70-1 0-2000 nM over immobilized PfHsp70-1, + 5 mM ATP
  association rate constant (kon): 2.14 (±0.04) × 10^4 Ms^−1
PfHsp70-1 [11]; analyte PfHsp70-1 over immobilized PfHsp70-1, + 5 mM ADP
  association rate constant (kon): 1.00 (±0.17) × 10^2 Ms^−1
PfHsp70-1 [11]; analyte PfHsp70-1 over immobilized PfHsp70-1, no nucleotide
  association rate constant (kon): 8.51 (±1.20) × 10^3 Ms^−1
PfAdoMetDC
  effect of co-produced chaperone on PfAdoMetDC folding: fully folded status
[8]; [12]
  temperature of complete unfolding: around 90 °C
[8]; 0.2 μM protein in PBS pH 7.5, 19–95 °C, relative to 19 °C
  temperature up to which at least 50% fold is maintained: 60 °C
[8]; two-step unfolding pattern
  temperature range of second unfolding phase: 75–90 °C
[9]
  Vmax: 22.45 (± 1.8) n/mol/min/mg
